Laboratory results as given in PubChem BioAssay AID463203 (Broad Institute, 2010).
The source made the active and inactive calls.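 The calls were made as follows: active = more than half of replicate measurements showing over 20% loss of kinase signal relative to plate controls; inconclusive = some but at most half of replicates over 20% loss; inactive = no replicate over 20% signal loss.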

The compounds below were run against Glycogen synthase kinase-3 alpha (Homo sapiens) (UniProt P49840) (assay: concentration-response blocking of human GSK3A – biochemical, luminescence, cell-free homogeneous, retest, dose response (AID 463203)). Conditions: GSK-3 alpha enzyme, ADP-Glo luminescence, 60 min.
Sequence of Glycogen synthase kinase-3 alpha (Homo sapiens) (P49840 whole entry, looked up): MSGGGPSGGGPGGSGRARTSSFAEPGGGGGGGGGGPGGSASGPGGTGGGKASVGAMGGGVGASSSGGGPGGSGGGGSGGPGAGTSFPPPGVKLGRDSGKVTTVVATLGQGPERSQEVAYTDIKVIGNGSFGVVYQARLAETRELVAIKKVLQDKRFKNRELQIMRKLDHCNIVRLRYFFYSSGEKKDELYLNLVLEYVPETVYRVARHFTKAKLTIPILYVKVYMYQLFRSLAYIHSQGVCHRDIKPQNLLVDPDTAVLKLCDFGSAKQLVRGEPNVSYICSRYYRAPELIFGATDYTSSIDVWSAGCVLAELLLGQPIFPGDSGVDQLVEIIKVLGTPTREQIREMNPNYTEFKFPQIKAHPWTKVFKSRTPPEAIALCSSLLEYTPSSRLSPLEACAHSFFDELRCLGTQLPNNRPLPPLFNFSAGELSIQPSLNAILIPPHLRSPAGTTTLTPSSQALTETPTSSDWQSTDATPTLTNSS
For `CCOC(=O)c1nc(NCc2ccccc2F)c2ccccc2n1`, the AC50 was > 30 µM (inactive). `Cc1ccc2oc(=O)c3cnn(CC(=O)N4CCN(c5ccccc5)CC4)c3c2c1` was tested, and the AC50 was > 30 µM (inactive). In the case of `O=C(Nc1ccc(Cl)c([N+](=O)[O-])c1)c1ccc(NCCCN2CCOCC2)c([N+](=O)[O-])c1`, the AC50 is reported as > 30 µM (inactive). `COc1ccc(NC(=O)Nc2ccc(F)cc2F)c(C)c1` was tested, and the AC50 was > 30 µM (inactive). For `CCOC(=O)c1nnn(-c2nonc2OC)c1-c1ccccc1`, the AC50 was > 30 µM (inactive). For `O=C(O)Cn1c(=O)c2c3c(sc2n(Cc2ccc(Cl)cc2Cl)c1=O)CCCC3`, the AC50 was > 30 µM (inactive). `O=C(O)c1ccc(Nc2nc(-c3cccnc3)nc3ccccc23)cc1` gave an AC50 of 9.3 µM. In the case of `COC(=O)Nc1nnc(COc2ccccc2)s1`, the AC50 is reported as > 30 µM (inactive). With `O=c1[nH]nc(SCc2nnc(-c3cccc(Cl)c3)o2)n1C1CCCCC1` the AC50 was > 30 µM (inactive). With `CCn1c2ccccc2c2nnc(SCC(N)=O)nc21` the AC50 was 15.4 µM. In the case of `CCn1c(C)nc2cc(-c3nnc(-c4c(-c5ccccc5)noc4C)o3)ccc21`, the AC50 is reported as > 30 µM (inactive). `Fc1cccc(Nc2ncnc3sccc23)c1` was tested, and the AC50 was > 30 µM (inactive). `O=c1[nH]nc(SCCS(=O)(=O)c2ccc(F)cc2)n1-c1ccccc1C(F)(F)F` showed an AC50 of 17.5 µM. In the case of `COc1cccc(CNc2nc(C(F)(F)F)nc3ccccc23)c1`, the AC50 is reported as > 30 µM (inactive). Work on `O=C(Nc1ccccc1N1CCOCC1)c1cnccn1` yielded an AC50 of 28.6 µM. In the case of `Cc1ccc(N(Cc2ccc([N+](=O)[O-])cc2)C(=O)c2ccco2)cc1`, the AC50 is reported as > 30 µM (inactive). With `COc1ccc(C(=O)NC(=O)CSc2nnc(-c3ccco3)n2-c2ccccc2)cc1` the AC50 was > 30 µM (inactive). With `CN(C)c1ncnc2c1ncn2C1OC(CO)C(O)C1O` (stereo not given) the AC50 was > 30 µM (inactive). Compound `O=C(COC(=O)c1cccc(S(=O)(=O)N2CCOCC2)c1)Nc1ccc(Cl)cn1` has an AC50 of 7.3 µM. `C[C@H]1CN([C@@H](C)CO)C(=O)c2cccc(NC(=O)c3cnccn3)c2O[C@@H]1CN(C)S(=O)(=O)c1ccc(F)cc1` showed an AC50 of 7.19 µM. In the case of `CCN(CC)CCNC(=O)c1ccc(NC(=O)C2CCN(c3ncnc4sc(C)c(C)c34)CC2)cc1`, the AC50 is reported as 22.8 µM. In the case of `CN(C)CCCNc1oc(-c2ccccc2)nc1C#N`, the AC50 is reported as > 30 µM (inactive). For `Cc1nc(Nc2ccc(F)cc2)nc(Nc2ccc(F)cc2)c1[N+](=O)[O-]`, the AC50 was > 30 µM (inactive). `Cc1csc(NC(=O)c2ccc3c(c2)OCO3)n1` was tested, and the AC50 was > 30 µM (inactive). `COc1cc(C2c3sc(=O)[nH]c3SC3C4CCC(C4)C23)ccc1O` (stereo not given) was tested, and the AC50 was 1.22 µM. With `N#CC1=C(SCC(=O)c2ccccc2)NC2=C(C(=O)CCC2)C1c1ccco1` (stereo not given) the AC50 was > 30 µM (inactive). With `COC(=O)CCCNc1ncccc1[N+](=O)[O-]` the AC50 was > 30 µM (inactive). `O=C(O)c1ccc(Nc2nc(-c3ccccc3)nc3ccccc23)cc1` was tested, and the AC50 was > 30 µM (inactive). For `O=C(Cn1c(NCCO)nc2ccccc21)NCC1CCCO1` (stereo not given), the AC50 was > 30 µM (inactive). With `CCN(CC)c1ccc(C2C(C(=O)OC(C)C)C(=O)CC(C)(O)C2C(=O)OC(C)C)cc1` (stereo not given) the AC50 was > 30 µM (inactive). `CCOC(=O)CCc1c(C)c2ccc(O)cc2oc1=O` was tested, and the AC50 was > 30 µM (inactive). `Cc1cccc(C)c1OC(=O)C(c1ccccc1)c1ccccc1` was tested, and the AC50 was > 30 µM (inactive). `Cc1ccc(C(=O)N2NC(c3ccc(F)cc3)C3C(=O)N(c4ccc(C)cc4)C(=O)C32)cc1` (stereo not given) was tested, and the AC50 was > 30 µM (inactive). For `COC(=O)C1=C(C)NC(=O)NC1c1ccc2c(c1)OCO2` (stereo not given), the AC50 was > 30 µM (inactive). In the case of `CCc1c(C)sc(NC(=O)C2CC2c2ccccc2)c1C(N)=O` (stereo not given), the AC50 is reported as > 30 µM (inactive). In the case of `CC(=O)N(C)c1ccc(N=Cc2cc3c(cc2[N+](=O)[O-])OCO3)cc1`, the AC50 is reported as 21.2 µM. `COCc1nnc(NC(=O)CCN2C(=O)c3ccccc3C2=O)s1` was tested, and the AC50 was > 30 µM (inactive). For `COC(=O)c1c(NC(=O)COC(=O)c2ccccn2)sc(C)c1C`, the AC50 was > 30 µM (inactive). In the case of `O=C(O)c1ccc(N=Cc2c(O)ccc3oc4c(c23)CCCC4)cc1`, the AC50 is reported as > 30 µM (inactive). Work on `CCOc1ccc(Cn2nnc(C(=O)Nc3cc(OC)cc(OC)c3)c2N)cc1` yielded an AC50 of 13.7 µM. For `CCCc1cc(C(N)=O)c(NC(=O)C2CCCO2)s1` (stereo not given), the AC50 was > 30 µM (inactive). In the case of `COC(=O)c1cc(OC)nc2ccc(Br)cc12`, the AC50 is reported as > 30 µM (inactive). `O=C1N=C(C=c2ccc(=Cc3[nH]c(=O)[nH]c3O)cc2)C(=O)N1` was tested, and the AC50 was 15.5 µM. `Cc1ccsc1C1C2=C(CC(C)(C)CC2=O)Nc2ncnn21` (stereo not given) was tested, and the AC50 was 11.3 µM. For `Cn1c(=O)c2[nH]c(CNc3ccc(C(=O)O)cc3)nc2n(C)c1=O`, the AC50 was > 30 µM (inactive). For `CC1=C(C(=O)Nc2cccc(F)c2)C(c2ccsc2)C2=C(CC(C)(C)CC2=O)N1` (stereo not given), the AC50 was > 30 µM (inactive). With `CCOC(=O)c1[nH]c(C)c(C(=O)OCCOc2cccc(C)c2)c1C` the AC50 was > 30 µM (inactive). In the case of `CC1CCN(Cc2c(C(=O)N/N=C/c3ccc(C(C)(C)C)cc3)nnn2-c2nonc2N)CC1`, the AC50 is reported as > 30 µM (inactive). With `CCOc1cc(/C=C2\SC(N3CCCCC3)=NC2=O)ccc1O` the AC50 was > 30 µM (inactive). In the case of `Cc1cc(C)c(OCC(O)CNC(C)(C)C)c(C)c1` (stereo not given), the AC50 is reported as > 30 µM (inactive). In the case of `Fc1ccc(Nc2ncnc3sccc23)cc1`, the AC50 is reported as > 30 µM (inactive). For `O=C(c1ccc(Cl)cc1)c1cnc(Nc2ccccc2Cl)s1`, the AC50 was > 30 µM (inactive). With `O=C1c2cccc(O)c2C(=O)c2c(O)cc(CO)cc21` the AC50 was > 30 µM (inactive). With `CN(C)C(=O)Oc1cccc2c(OC(=O)N(C)C)cccc12` the AC50 was > 30 µM (inactive). In the case of `Clc1ccc(Nc2ncn[nH]2)cc1`, the AC50 is reported as > 30 µM (inactive). For `CCC(=N\NC(=O)COc1ccccc1OC)/C(CC)=N/NC(=O)COc1ccccc1OC`, the AC50 was > 30 µM (inactive). Compound `Cc1ccc(-c2cc(-c3n[nH]c(=S)o3)c3ccccc3n2)cc1` has an AC50 of 27.7 µM. `O=C(NCCN1CCN(Cc2ccccc2)CC1)Nc1cc(Cl)cc(Cl)c1` was tested, and the AC50 was > 30 µM (inactive). With `COc1ccccc1OC(C)C(=O)N1CCC(Cc2ccccc2)CC1` (stereo not given) the AC50 was > 30 µM (inactive). For `CC(C)(C)N=Cc1c(O)ccc2oc3c(c12)CCCC3`, the AC50 was > 30 µM (inactive). With `CNC(=O)NCC12CC3CC(CC(C3)C1)C2` the AC50 was > 30 µM (inactive). For `CCOC(=O)CN1CC23C=CC(O2)C(C(=O)O)C3C1=O` (stereo not given), the AC50 was > 30 µM (inactive). `CC(C)C(=O)Nc1cccc2nsnc12` was tested, and the AC50 was > 30 µM (inactive). In the case of `O=C(Nc1nnc(-c2ccco2)s1)C1CCCCC1`, the AC50 is reported as > 30 µM (inactive). With `COc1cccc(/C=c2\s/c(=C\C(=O)C(C)(C)C)[nH]c2=O)c1` the AC50 was > 30 µM (inactive). With `O=C(Cn1c(NCCCO)nc2ccccc21)c1ccc([N+](=O)[O-])cc1` the AC50 was > 30 µM (inactive). In the case of `Cc1ccsc1C(=O)OCC(=O)N1C(C)CCCC1C` (stereo not given), the AC50 is reported as > 30 µM (inactive). `CCC(Oc1ccccc1)C(=O)Nc1ncc([N+](=O)[O-])s1` (stereo not given) was tested, and the AC50 was > 30 µM (inactive). In the case of `N#Cc1cc(-c2cccc(Cl)c2)c[nH]c1=O`, the AC50 is reported as > 30 µM (inactive). In the case of `Cc1cc(C)nc(NS(=O)(=O)c2cccs2)c1`, the AC50 is reported as > 30 µM (inactive). With `Cc1oc2ccc(O)c(CN(C)C)c2c1C(=O)c1ccccc1` the AC50 was > 30 µM (inactive). `Cc1cc(C(=O)c2cccs2)c(N)s1` showed an AC50 of 15.6 µM. For `O=C1CCCC/C1=C\Nc1ccc(O)cc1`, the AC50 was 21.6 µM. Compound `Oc1ccc2c(c1)oc1cc(O)ccc12` has an AC50 of 12 µM. In the case of `NC(=O)NCC12CC3CC(CC(C3)C1)C2`, the AC50 is reported as > 30 µM (inactive). `N#Cc1c(-c2ccncc2)c2c([nH]c1=O)-c1ccccc1OC2` was tested, and the AC50 was > 30 µM (inactive). `O=c1[nH]c2c(s1)C(c1cccnc1)C1C3CCC(C3)C1S2` (stereo not given) was tested, and the AC50 was 8.66 µM. In the case of `O=[N+]([O-])c1ccc(NCCCN2CCOCC2)c([N+](=O)[O-])c1`, the AC50 is reported as > 30 µM (inactive). For `COc1ccc2[nH]c(C)c(CN3CCCCC3)c(=O)c2c1`, the AC50 was > 30 µM (inactive). For `CCSc1nnc([C@@H](N)Cc2c[nH]c3ccccc23)o1`, the AC50 was > 30 µM (inactive). Work on `CCOC(=O)c1nnn(-c2nonc2N)c1COc1ccc(F)cc1` yielded an AC50 of 4.9 µM. In the case of `Cc1ccnc2ccc(SC(F)(F)F)cc12`, the AC50 is reported as > 30 µM (inactive). For `Cc1ccc(OCC(=O)N2CCN(c3nnc(-c4ccc(C)cc4)c4ccccc34)CC2)cc1`, the AC50 was > 30 µM (inactive). `N/C(=N\OC(=O)c1ccco1)c1ccc(Cl)cc1` was tested, and the AC50 was > 30 µM (inactive). In the case of `Cc1cccc(C)c1OCC(O)CNC(C)(C)C` (stereo not given), the AC50 is reported as > 30 µM (inactive). In the case of `Cc1ccc(Cc2c(C)nc3nc(SCC(=O)NCCCN4CCCCCC4)nn3c2C)cc1`, the AC50 is reported as > 30 µM (inactive). For `O=C(O)c1cccc(Nc2nc(-c3cccnc3)nc3ccccc23)c1`, the AC50 was 12.5 µM. For `COC(=O)c1sccc1-c1ccc(C(N)=O)o1`, the AC50 was 26.8 µM. `COc1ccc(COC(=O)C2=C(C)NC(=O)NC2c2cccc(Br)c2)cc1` (stereo not given) was tested, and the AC50 was 16.9 µM. `Cc1c(C(=O)N/N=C/c2ccc(O)c(Br)c2)sc(N)c1C#N` gave an AC50 of 1.02 µM. With `Cc1oc2ccc(O)c(CN3CCOCC3)c2c1C(=O)c1ccc(Cl)cc1` the AC50 was > 30 µM (inactive). With `O=C(CSc1n[nH]c(=O)n1-c1ccc2c(c1)OCCO2)Nc1ccccc1` the AC50 was > 30 µM (inactive). With `COc1ccc(-n2c(Cc3cccn3C)nnc2SCC(=O)Nc2ccc(F)cc2)cc1` the AC50 was > 30 µM (inactive). `CN(c1ccccc1)c1nc(-n2ccnc2)nc(-n2ccnc2)n1` gave an AC50 of 29.3 µM. `CC(C)COC(=O)N1CCCC1C(=O)Nc1nccs1` (stereo not given) was tested, and the AC50 was > 30 µM (inactive). `COc1cccc(OCc2cc(C(=O)NCc3ccc4c(c3)OCO4)no2)c1` was tested, and the AC50 was > 30 µM (inactive). For `Cc1ccc(SCCc2cc[n+](CC(=O)c3ccccc3)cc2)cc1`, the AC50 was > 30 µM (inactive). In the case of `Cc1oc2ccc(O)cc2c1C(=O)c1ccc(F)cc1`, the AC50 is reported as > 30 µM (inactive). `Cc1ccnc(NC(=O)CN2C(=O)c3ccccc3S2(=O)=O)c1` was tested, and the AC50 was > 30 µM (inactive). In the case of `O=c1[nH]c(CN2CCN(CCO)CC2)nc2ccccc12`, the AC50 is reported as > 30 µM (inactive). `O=c1cc(-c2ccccc2Cl)oc2c(NS(=O)(=O)c3cc(Cl)cc(Cl)c3O)ccc(O)c12` was tested, and the AC50 was > 30 µM (inactive). `COc1ccc(CCNC(=O)CSc2nc3[nH]ncc3c(=O)n2-c2cccc(C(F)(F)F)c2)cc1OC` was tested, and the AC50 was > 30 µM (inactive). `CCCC(=O)NNC(=O)c1c(O)c2ccccc2[nH]c1=O` was tested, and the AC50 was > 30 µM (inactive). With `CC1CN(c2nc(N(C)c3ccccc3)nc(N)c2[N+](=O)[O-])CC(C)O1` (stereo not given) the AC50 was > 30 µM (inactive). In the case of `CC1(C)OC2OC(COC(=O)c3ccccc3)C3OC(C)(C)OC3C2O1` (stereo not given), the AC50 is reported as > 30 µM (inactive).
